Test results as given in PMC9229919, “4-Aminoquinoline-Based Adamantanes as Potential Anticholinesterase Agents in Symptomatic Treatment of Alzheimer’s Disease” (Pharmaceutics, 2022).
Where two headings read alike, the source gives them in different places.

What was measured:
[1] = Ferric reducing antioxidant power (FRAP) assay; conditions: for FRAP: mean ± standard error of three experiments;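 on FRAP: expressed as µM Fe2+ equivalents from an FeSO4·7H2O standard curve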
Protocol: . All the chemicals were purchased from Sigma-Aldrich (St. Louis, MO, USA), except for tripyridyltriazine (TPTZ) (Fluka, Buchs, Switzerland) and FeCl3 (Kemika, Zagreb, Croatia). The FRAP assay was assessed according to Benzie and Strain [53] with slight procedure adjustments for 96-well microplates. The method is based on the reduction of the ferric-tripyridyltriazine (Fe^3+-TPTZ) complex to ferrous tripyridyltriazine (Fe^2+-TPTZ) by the action of electron-donating compounds at a low pH. Briefly, the FRAP reagent was prepared by mixing acetate buffer (300 mM, pH 3.6), a solution of 10 mM TPTZ in 40 mM HCl, and 20 mM FeCl3 at 10:1:1 (v/v/v). Then, 240 μL of FRAP reagent and 10 μL of sample solution were added to a 96-well plate and incubated at 37 °C for 60 min. The absorbance was measured at 593 nm using a microplate reader (Infinite M200PRO, Tecan Austria GmbH, Salzburg, Austria) against a blank. The reducing capacity was determined for 10 and 100 µM compound concentrations. […]. All measurements were performed in three independent experiments. FRAP values, denominating the reduction of ferric-tripyridyltriazine (Fe^3+-TPTZ) to ferrous tripyridyltriazine (Fe^2+-TPTZ) by 4-aminoquinolines were calculated based on a standard curve obtained using […].

purified human BChE = target: T1, purified human BChE (Homo sapiens, UniProt P06276); assay: biochemical; format: biochemical
T1 construct: possibly also a gift of Dr Florian Nachon (the sentence is ambiguous)
Protocol: (§1) Acetylthiocholine (ATCh) and 5,5′-dithiobis(2-nitrobenzoic acid) (DTNB) were purchased from Sigma-Aldrich, St. Louis, MO, USA. ATCh was dissolved in water and DTNB in 0.1 M sodium phosphate buffer (pH 7.4). The 4-aminoquinilines were dissolved in DMSO and all further dilutions were made in water.
(§2) The sources of AChE and BChE were purified human BChE and recombinant human AChE that was kindly provided by Dr Florian Nachon (Département de Toxicologie, Armed Forces Biomedical Research Institute, Brétigny-sur-Orge, France). […] The enzymes were diluted in sodium phosphate buffer 0.1 M (pH 7.4) containing 0.1% BSA.
(§3) Enzyme activities were measured spectrophotometrically using a slightly modified Ellman method, as described earlier. […] At least three inhibitor concentrations for each substrate concentration were used in at least three experiments. The apparent inhibition constant (Ki,app) was calculated using the Hunter–Downs Equation and linear regression analysis:(1) Ki,app=vi·i/v0−vi=Ki+Ki/KS·s where the y-intercept determines the enzyme-inhibitor dissociation constant (Ki), while the x-intercept determines the enzyme-substrate dissociation constant, KS.
(§4) The Hunter–Downs Equation was used under the assumption that the substrate, due to relatively low concentrations used in experiments, would bind only to the catalytic site of the enzymes, while the inhibitors would bind to both CAS and/or PAs. This allowed the type of inhibition to be determined from Ki,app vs. substrate concentration ([S]) dependency on Hunter–Downs plot.
(§5) The final content of DMSO in the measurements was up to 0.2%. […] The measurements were performed at 25 °C on a Tecan Infinite M200Pro plate reader (Tecan Austria GmbH, Salzburg, Austria).

recombinant human AChE = target: T2, recombinant human AChE (Homo sapiens, UniProt P22303); assay: biochemical; format: biochemical; conditions: for IS: IS = Ki(BChE)/Ki(AChE), IS > 1 selective to AChE
T2 construct: gift of Dr Florian Nachon (Armed Forces Biomedical Research Institute, Brétigny-sur-Orge, France)
Protocol: as §1, §2, §3, §4, §5

[2] = Reverse-phase thin-layer chromatographic lipophilicity (RF, RM0); format: physicochemical; conditions: for RM0: intercept of RM = RM0 + bC; for b: slope of RM = RM0 + bC; for RF, Methanol/Water/Hydrochloric acid (conc.), mobile phase I / RF, Dioxane/Water/Hydrochloric acid (conc.), mobile phase II / RF, Methanol/Water/Hydrochloric acid (conc.), mobile phase II / RF, Acetone/Water/Hydrochloric acid (conc.), mobile phase III / RF, Dioxane/Water/Hydrochloric acid (conc.), mobile phase III / RF, Methanol/Water/Hydrochloric acid (conc.), mobile phase III / RF, Dioxane/Water/Hydrochloric acid (conc.), mobile phase IV / RF, Acetone/Water/Hydrochloric acid (conc.), mobile phase IV / RF, Methanol/Water/Hydrochloric acid (conc.), mobile phase IV / RF, Acetone/Water/Hydrochloric acid (conc.), mobile phase IX / RF, Methanol/Water/Hydrochloric acid (conc.), mobile phase IX / RF, Dioxane/Water/Hydrochloric acid (conc.), mobile phase V / RF, Acetone/Water/Hydrochloric acid (conc.), mobile phase V / RF, Methanol/Water/Hydrochloric acid (conc.), mobile phase V / RF, Dioxane/Water/Hydrochloric acid (conc.), mobile phase VI / RF, Acetone/Water/Hydrochloric acid (conc.), mobile phase VI / RF, Methanol/Water/Hydrochloric acid (conc.), mobile phase VI / RF, Acetone/Water/Hydrochloric acid (conc.), mobile phase VII / RF, Methanol/Water/Hydrochloric acid (conc.), mobile phase VII / RF, Acetone/Water/Hydrochloric acid (conc.), mobile phase VIII / RF, Methanol/Water/Hydrochloric acid (conc.), mobile phase VIII: RP-18 silica; for RF, Methanol/Water/Hydrochloric acid (conc.), mobile phase I: I = 90%MeOH/5%H2O/5%HCl; for RF, Dioxane/Water/Hydrochloric acid (conc.), mobile phase II: II = 80%Dioxane/15%H2O/5%HCl; for RF, Methanol/Water/Hydrochloric acid (conc.), mobile phase II: II = 85%MeOH/10%H2O/5%HCl; for RF, Acetone/Water/Hydrochloric acid (conc.), mobile phase III: III = 70%AC/25%H2O/5%HCl; for RF, Dioxane/Water/Hydrochloric acid (conc.), mobile phase III: III = 70%Dioxane/25%H2O/5%HCl; for RF, Methanol/Water/Hydrochloric acid (conc.), mobile phase III: III = 80%MeOH/15%H2O/5%HCl; for RF, Dioxane/Water/Hydrochloric acid (conc.), mobile phase IV: IV = 60%Dioxane/35%H2O/5%HCl; for RF, Acetone/Water/Hydrochloric acid (conc.), mobile phase IV: IV = 65%AC/30%H2O/5%HCl; for RF, Methanol/Water/Hydrochloric acid (conc.), mobile phase IV: IV = 75%MeOH/20%H2O/5%HCl; for RF, Acetone/Water/Hydrochloric acid (conc.), mobile phase IX: IX = 40%AC/55%H2O/5%HCl; for RF, Methanol/Water/Hydrochloric acid (conc.), mobile phase IX: IX = 50%MeOH/45%H2O/5%HCl; for RF, Dioxane/Water/Hydrochloric acid (conc.), mobile phase V: V = 50%Dioxane/45%H2O/5%HCl; for RF, Acetone/Water/Hydrochloric acid (conc.), mobile phase V: V = 60%AC/35%H2O/5%HCl; for RF, Methanol/Water/Hydrochloric acid (conc.), mobile phase V: V = 70%MeOH/25%H2O/5%HCl; for RF, Dioxane/Water/Hydrochloric acid (conc.), mobile phase VI: VI = 40%Dioxane/55%H2O/5%HCl; for RF, Acetone/Water/Hydrochloric acid (conc.), mobile phase VI: VI = 55%AC/40%H2O/5%HCl; for RF, Methanol/Water/Hydrochloric acid (conc.), mobile phase VI: VI = 65%MeOH/30%H2O/5%HCl; for RF, Acetone/Water/Hydrochloric acid (conc.), mobile phase VII: VII = 50%AC/45%H2O/5%HCl; for RF, Methanol/Water/Hydrochloric acid (conc.), mobile phase VII: VII = 60%MeOH/35%H2O/5%HCl; for RF, Acetone/Water/Hydrochloric acid (conc.), mobile phase VIII: VIII = 45%AC/50%H2O/5%HCl; for RF, Methanol/Water/Hydrochloric acid (conc.), mobile phase VIII: VIII = 55%MeOH/40%H2O/5%HCl
Protocol: Chromatographic determination of lipophilicity
Merck, Darmstadt, Germany). The mobile phase contained organic modifier (methanol, acetone or dioxane), water and hydrochloric acid.
Methanol was varied in the range […]
with an increment of 10%. […]
before chromatogram development. The solvent developing distance was 4.5 cm. Detection of […]
All experiments were performed at ambient temperature (22±2 °C). Retention parameters were calculated as previously described. […]

[3] = logarithm of Ki in µM, BChE, dependent variable of the QSAR model, read-out: Y Measured 2 log(ki)Bche, log (Ki/µM BChE) (converted)
[4] = ± standard error, 25 °C, ATCh substrate, read-out: Ki BChE
[5] = log (Ki/µM AChE), read-out: Y Measured 1 log(ki)Ache (converted)
[6] = ± standard error, 25 °C, ATCh substrate, read-out: Ki AChE
[7] = Acetone/Water/Hydrochloric acid (conc.)
[8] = Dioxane/Water/Hydrochloric acid (conc.)
[9] = Methanol/Water/Hydrochloric acid (conc.)

T2 sequence (P22303 32-614): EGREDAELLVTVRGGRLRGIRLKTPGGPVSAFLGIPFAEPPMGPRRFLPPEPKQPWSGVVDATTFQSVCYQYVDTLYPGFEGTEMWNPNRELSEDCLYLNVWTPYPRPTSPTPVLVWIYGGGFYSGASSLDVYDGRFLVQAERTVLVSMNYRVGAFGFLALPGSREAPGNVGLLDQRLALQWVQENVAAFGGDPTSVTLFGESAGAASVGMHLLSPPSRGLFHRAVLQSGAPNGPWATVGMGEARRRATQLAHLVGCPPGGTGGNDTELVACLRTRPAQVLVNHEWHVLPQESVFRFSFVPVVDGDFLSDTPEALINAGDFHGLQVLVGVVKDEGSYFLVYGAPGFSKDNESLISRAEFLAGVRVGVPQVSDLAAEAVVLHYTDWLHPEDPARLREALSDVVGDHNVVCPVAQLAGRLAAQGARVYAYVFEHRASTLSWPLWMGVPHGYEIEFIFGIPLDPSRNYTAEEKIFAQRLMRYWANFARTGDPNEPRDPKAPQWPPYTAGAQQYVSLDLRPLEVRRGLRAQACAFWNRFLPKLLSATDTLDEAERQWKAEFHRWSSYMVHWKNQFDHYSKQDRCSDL
T1 sequence (P06276 29-602): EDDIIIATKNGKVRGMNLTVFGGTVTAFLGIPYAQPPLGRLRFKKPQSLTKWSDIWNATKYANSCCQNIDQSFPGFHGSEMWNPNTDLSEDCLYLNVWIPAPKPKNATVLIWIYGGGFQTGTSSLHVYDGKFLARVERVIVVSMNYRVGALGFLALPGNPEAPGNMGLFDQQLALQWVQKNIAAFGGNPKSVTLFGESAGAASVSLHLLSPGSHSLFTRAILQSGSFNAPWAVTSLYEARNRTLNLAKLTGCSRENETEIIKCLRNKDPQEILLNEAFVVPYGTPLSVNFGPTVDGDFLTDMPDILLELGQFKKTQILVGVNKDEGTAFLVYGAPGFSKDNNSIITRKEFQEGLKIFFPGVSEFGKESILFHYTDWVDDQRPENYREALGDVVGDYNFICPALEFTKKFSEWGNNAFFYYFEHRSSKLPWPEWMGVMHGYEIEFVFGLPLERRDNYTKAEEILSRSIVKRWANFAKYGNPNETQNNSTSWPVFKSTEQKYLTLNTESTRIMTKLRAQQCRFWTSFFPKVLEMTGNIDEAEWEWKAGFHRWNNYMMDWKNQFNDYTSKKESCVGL

Row | Structure (SMILES) | FRAP ([1]; 100 µM compound) [µM] | Ki (purified human BChE; [3]) [µM] | Ki (purified human BChE; [4]) [µM] | IS (recombinant human AChE) | Ki (recombinant human AChE; [5]) [µM] | Ki (recombinant human AChE; [6]) [µM] | FRAP ([1]; 10 µM compound) [µM] | RM0 [2, 7] | b [2, 7] | RM0 [2, 8] | b [2, 8] | RM0 [2, 9] | b [2, 9] | RF, Methanol/Water/Hydrochloric acid (conc.), mobile phase I [2] | RF, Dioxane/Water/Hydrochloric acid (conc.), mobile phase II [2] | RF, Methanol/Water/Hydrochloric acid (conc.), mobile phase II [2] | RF, Acetone/Water/Hydrochloric acid (conc.), mobile phase III [2] | RF, Dioxane/Water/Hydrochloric acid (conc.), mobile phase III [2] | RF, Methanol/Water/Hydrochloric acid (conc.), mobile phase III [2] | RF, Dioxane/Water/Hydrochloric acid (conc.), mobile phase IV [2] | further results
1 | Cc1cc(C(C)(C)C)c(O)c(C(C)(C)C)c1 [BHT, butylated hydroxytoluene, reference compound] | 3021 ± 117 | – | – | – | – | – | – | – | – | – | – | – | – | – | – | – | – | – | – | – | –
2 | Clc1ccc2c(NCCNCC34CC5CC(CC(C5)C3)C4)ccnc2c1 [Compound 1] | 20 ± 4 | 2.1 | 2.1 ± 0.2 | 1.8 | 1.2 | 1.2 ± 0.1 | 2.4 ± 1.3 | 1.738 | 2.883 | 0.8129 | 1.796 | 2.081 | 2.812 | 0.72 | 0.78 | 0.68 | 0.62 | 0.73 | 0.54 | 0.73 | less potent inhibitors of BChE than compounds 3 or 4 (purified human BChE): about 3.2 times; RF, Acetone/Water/Hydrochloric acid (conc.), mobile phase IV [2]: 0.59; RF, Methanol/Water/Hydrochloric acid (conc.), mobile phase IV [2]: 0.55; RF, Acetone/Water/Hydrochloric acid (conc.), mobile phase IX [2]: 0.16; RF, Methanol/Water/Hydrochloric acid (conc.), mobile phase IX [2]: 0.15; RF, Dioxane/Water/Hydrochloric acid (conc.), mobile phase V [2]: 0.55; RF, Acetone/Water/Hydrochloric acid (conc.), mobile phase V [2]: 0.51; RF, Methanol/Water/Hydrochloric acid (conc.), mobile phase V [2]: 0.48; RF, Dioxane/Water/Hydrochloric acid (conc.), mobile phase VI [2]: 0.4; RF, Acetone/Water/Hydrochloric acid (conc.), mobile phase VI [2]: 0.41; RF, Methanol/Water/Hydrochloric acid (conc.), mobile phase VI [2]: 0.43; RF, Acetone/Water/Hydrochloric acid (conc.), mobile phase VII [2]: 0.36; RF, Methanol/Water/Hydrochloric acid (conc.), mobile phase VII [2]: 0.28; RF, Acetone/Water/Hydrochloric acid (conc.), mobile phase VIII [2]: 0.32; RF, Methanol/Water/Hydrochloric acid (conc.), mobile phase VIII [2]: 0.22
3 | Clc1ccc2c(NCCCCNCC34CC5CC(CC(C5)C3)C4)ccnc2c1 [Compound 3] | 38 ± 6 | 0.92 | 0.92 ± 0.04 | 0.9 | 1 | 1 | 0 | 1.838 | 3.04 | 0.7921 | 1.783 | 2.348 | 3.092 | 0.71 | 0.78 | 0.65 | 0.63 | 0.74 | 0.51 | 0.74 | RF, Acetone/Water/Hydrochloric acid (conc.), mobile phase IV [2]: 0.58; RF, Methanol/Water/Hydrochloric acid (conc.), mobile phase IV [2]: 0.53; RF, Acetone/Water/Hydrochloric acid (conc.), mobile phase IX [2]: 0.15; RF, Methanol/Water/Hydrochloric acid (conc.), mobile phase IX [2]: 0.11; RF, Dioxane/Water/Hydrochloric acid (conc.), mobile phase V [2]: 0.55; RF, Acetone/Water/Hydrochloric acid (conc.), mobile phase V [2]: 0.51; RF, Methanol/Water/Hydrochloric acid (conc.), mobile phase V [2]: 0.44; RF, Dioxane/Water/Hydrochloric acid (conc.), mobile phase VI [2]: 0.41; RF, Acetone/Water/Hydrochloric acid (conc.), mobile phase VI [2]: 0.41; RF, Methanol/Water/Hydrochloric acid (conc.), mobile phase VI [2]: 0.37; RF, Acetone/Water/Hydrochloric acid (conc.), mobile phase VII [2]: 0.35; RF, Methanol/Water/Hydrochloric acid (conc.), mobile phase VII [2]: 0.25; RF, Acetone/Water/Hydrochloric acid (conc.), mobile phase VIII [2]: 0.3; RF, Methanol/Water/Hydrochloric acid (conc.), mobile phase VIII [2]: 0.18
4 | Nc1c2c(nc3ccccc13)CCCC2 [Tacrine, reference compound] | 15 ± 2 | – | – | – | – | – | 3.4 ± 0.0 | – | – | – | – | – | – | – | – | – | – | – | – | – | reducing power (in words) ([1]; 10 and 100 µM): negligible reducing power
5 | Cc1c(C)c2c(c(C)c1O)CCC(C)(C(=O)O)O2 (stereo not drawn) [Trolox, reference compound] | 5812 ± 68 | – | – | – | – | – | 523 ± 8 | – | – | – | – | – | – | – | – | – | – | – | – | – | –
